Laboratory results taken from paper PMC11356571, “The Comparative Metabolism of a Novel Hepatocellular Carcinoma Therapeutic Agent, 2,3-Diamino-N-(4-(benzo[d]thiazol-2-yl)phenyl)propanamide, in Human and Animal Hepatocytes” (Metabolites, 2024).

Key:
CYP2B6 = biological target: T1, CYP2B6 (Homo sapiens, UniProt P20813); assay: Incubation with human cDNA-expressed CYP2B6; assay type: in vitro ADME; settings: CYP2B6, 30 min at 37 °C with NADPH; ETN101 10 μM or M1 1 μM
T1 construct: purchased Cypex Ltd. (Dundee, UK)
T1 sequence (P20813 1-491): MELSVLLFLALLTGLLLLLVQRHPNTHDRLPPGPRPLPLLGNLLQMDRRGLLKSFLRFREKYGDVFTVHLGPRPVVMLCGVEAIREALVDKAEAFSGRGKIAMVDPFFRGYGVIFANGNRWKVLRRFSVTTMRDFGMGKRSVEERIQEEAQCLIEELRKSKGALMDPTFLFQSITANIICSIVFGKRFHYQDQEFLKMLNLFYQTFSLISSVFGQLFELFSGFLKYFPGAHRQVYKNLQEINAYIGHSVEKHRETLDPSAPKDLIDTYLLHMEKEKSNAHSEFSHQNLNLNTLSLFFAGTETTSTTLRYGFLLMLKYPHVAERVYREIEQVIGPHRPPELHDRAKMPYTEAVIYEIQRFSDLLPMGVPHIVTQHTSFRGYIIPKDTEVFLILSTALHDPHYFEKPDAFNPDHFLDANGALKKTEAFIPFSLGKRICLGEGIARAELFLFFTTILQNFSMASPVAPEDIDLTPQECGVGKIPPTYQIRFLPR
Experimental: ETN101 or M1 was incubated with nine human cDNA-expressed CYP enzymes (1A2, 2A6, 2B6, 2C8, 2C9, 2C19, 2D6, 2E1, and 3A4) to identify the CYPs involved in the metabolism of ETN101. Based on the preliminary study, the incubation conditions were determined as follows: Briefly, reaction mixtures of 50 μL containing ETN101 (final concentration: 10 μM) or M1 (final concentration: 1 μM), and CYPs (final amount: 5 pmol for CYP1A2, 2A6, 2C8, 2C9, 2C19, 2D6, and 3A4; 10 pmol for CYP2B6 and 2E1) were prepared in 0.1 M potassium phosphate buffer. The reaction was initiated by adding 50 μL of NADPH- regenerating system; the mixtures were incubated for 0 min or 30 min at 37 °C in triplicate. Reactions were terminated by the addition of 100 μL of ice-cold acetonitrile containing the IS (camptothecin, 200 ng/mL). Samples were centrifuged at 13,000 rpm for 5 min at 4 °C. An aliquot of 2 μL supernatant was injected in LC–MS/MS system.
For enzyme characterization, an Agilent 6460 triple quadrupole mass spectrometer coupled with a 1260 HPLC system (Agilent Technologies, Santa Clara, CA, USA) and a Kinetex Halo® C18 column (2.7 μm, 2.1 × 50 mm, Advanced Material Technology, Wilmington, DE, USA) were used for chromatographic separation. […] ETN101, M1, and M2 were detected via MRM using ESI in the positive mode. […]

monkey hepatocytes = assay: Metabolite characterization in monkey hepatocytes; assay type: in vitro ADME; settings: monkey hepatocyte 1 h incubates of ETN101; ND:<1.2E+05 peak area
Experimental: We mixed 60 μL aliquots of 40 μM ETN101 in incubation medium and an equal volume of human, mouse, rat, dog, or monkey hepatocyte suspension in 96-well plates and incubated for 0 or 1 h in a CO2 incubator at 37 °C. The reactions were quenched by adding 120 µL of ice-cold acetonitrile to each well, and the cell suspension was sonicated for 5 min at 4 °C. Subsequently, centrifugation was carried out at 15,000× g for 10 min at 4 °C. Next, the supernatants were evaporated to dryness using a vacuum concentrator, and residues were re-dissolved in 70 μL of 30% acetonitrile. Each sample (5 μL aliquots) was analyzed using LC–HRMS system.
For metabolite characterization, a Vanquish HPLC system (Thermo Fisher Scientific, San José, CA, USA) coupled with a Q-Exactive Orbitrap mass spectrometer (Thermo Fisher Scientific Inc., Waltham, MA, USA) was used at Core Research Support Center for Natural Products and Medical Materials at Yeungnam University. […] The eluent from the column was directly injected into the mass spectrometer using a heated electrospray ionization (HESI) source in positive ionization mode. […] The spray voltage was 3.0 kV and the capillary temperature was 320 °C. Full scan MS^1 with a data-dependent MS^2 acquisition mode was applied to obtain MS^1 scan data ranging from m/z 80 to 900, at a resolution of 70,000, whereas data-dependent MS^2 spectra were acquired for the five most abundant peaks per cycle at a resolution of 35,000. The parallel reaction monitoring (PRM) mode was used to obtain the MS^2 spectra of putative metabolites detected at low peak intensities in the data-dependent MS^2 acquisition mode. Data were collected and interpreted using Thermo Scientific Xcalibur™ Software (Thermo Fisher Scientific).

| Compound | Percentage remaining (CYP2B6) [%] | Relative peak area (%) (monkey hepatocytes) |
| --- | --- | --- |
| NCC(N)C(=O)Nc1ccc(-c2nc3ccccc3s2)cc1 (stereo not shown) [ETN101, 2,3-diamino-N-(4-(benzo[d]thiazol-2-yl)phenyl)propanamide] | 92.8 | 69.0 |
| Nc1ccc(-c2nc3ccccc3s2)cc1 [M1, 2-(4-aminophenyl)benzothiazole] | 109.8 | 21.5 |
